Experiments:
[1] = system: Staphylococcus aureus V41; settings: agar dilution
Escherichia coli EC14 = format: cell-based; settings: agar dilution
[2] = system: Haemophilus influenzae C.L.; format: cell-based; settings: agar dilution
[3] = system: Staphylococcus aureus X400; settings: agar dilution
[4] = system: Staphylococcus epidermidis EP11; format: cell-based; settings: agar dilution
[5] = system: Haemophilus influenzae 76; format: cell-based; settings: agar dilution
Klebsiella pneumonia X26 = format: cell-based; settings: agar dilution
Escherichia coli N10 = format: cell-based; settings: agar dilution
[6] = system: Streptococcus pyogenes C203; format: cell-based; settings: agar dilution
[7] = system: Streptococcus sp. group D 2041; format: cell-based; settings: agar dilution
[8] = system: Streptococcus faecium ATCC 9790; format: cell-based; settings: agar dilution
Klebsiella pneumonia X68 = format: cell-based; settings: agar dilution
[9] = system: Streptococcus pneumoniae Park 1; format: cell-based; settings: agar dilution
Klebsiella pneumonia KAE = format: cell-based; settings: agar dilution
[10] = system: Staphylococcus epidermidis 222; format: cell-based; settings: agar dilution
[11] = system: Staphylococcus aureus NRRL B313; settings: agar dilution
Escherichia coli TEM = format: cell-based; settings: agar dilution
[12] = system: Bacteroides fragilis 1936B; format: cell-based; settings: agar dilution, read after 24 hrs
Bacteroides fragilis 111 = format: cell-based; settings: agar dilution, read after 24 hrs
[13] = system: Bacteroides corrodens 1874; format: cell-based; settings: agar dilution, read after 24 hrs
Peptococcus prevoti 1281 = settings: agar dilution, read after 24 hrs
[14] = system: Fusobacterium symbiosum 1470; format: cell-based; settings: agar dilution, read after 24 hrs
[15] = system: Peptostreptococcus anaerobius 1428; format: cell-based; settings: agar dilution, read after 24 hrs
[16] = system: Fusobacterium necrophorum 6054A; format: cell-based; settings: agar dilution, read after 24 hrs
[17] = system: Propionibacterium acnes 79; format: cell-based; settings: agar dilution, read after 24 hrs
[18] = system: Bacteroides vulgatis 1211; format: cell-based; settings: agar dilution, read after 24 hrs
[19] = system: Peptococcus asaccharolyticus 1302; format: cell-based; settings: agar dilution, read after 24 hrs
[20] = system: Eubacterium aerofaciens 1235; format: cell-based; settings: agar dilution, read after 24 hrs
[21] = system: Peptostreptococcus intermedius 1264; format: cell-based; settings: agar dilution, read after 24 hrs
[22] = system: Bacteroides fragilis 1877; format: cell-based; settings: agar dilution, read after 24 hrs
[23] = system: Bacteroides melaninogenicus 1856/28; format: cell-based; settings: agar dilution, read after 24 hrs
Streptococcus pyogenes = assay: experimental bacterial infection in mice, ED50; format: in vivo; settings: subcutaneous, two doses
Description: (§1) The formula 1 compounds have also shown in vivo antimicrobial activity against experimental bacterial infections. When two doses of test compound were administered to mice in experimental infections, the activity observed was measured as an ED50 value [effective dose in mg/kg to protect 50% of the test animals: see Warren Wick, et al., J. Bacteriol. 81, 233-235 (1961)].

Streptococcus pneumoniae = assay: experimental bacterial infection in mice, ED50; format: in vivo; settings: subcutaneous, two doses
Description: as §1

Staphylococcus aureus = assay: experimental bacterial infection in mice, ED50; format: in vivo; settings: subcutaneous, two doses
Description: as §1

[24] = system: Bacteroides melaninogenicus 2736; format: cell-based; settings: agar dilution, read after 24 hrs
[25] = system: Clostridium septicum 1128; format: cell-based; settings: agar dilution, read after 24 hrs
Description: (§2) | read after 24hrs. incubation.

[26] = system: Clostridium difficile 2994; format: cell-based; settings: agar dilution, read after 24 hrs
Description: as §2

[27] = system: Clostridium perfringens 81; format: cell-based; settings: agar dilution, read after 24 hrs
[28] = system: Bacteroides thetaiotaomicron 1438; format: cell-based; settings: agar dilution, read after 24 hrs
[29] = system: gram-positive microorganisms; assay: in vitro antibacterial activity (general statement); format: cell-based; settings: statement in words

CC(C)C[C@H](C(=O)N[C@H]1C(=O)N[C@@H](CC(N)=O)C(=O)N[C@H]2C(=O)N[C@H]3C(=O)N[C@H](C(=O)N[C@H](C(=O)[O-])c4cc(O)cc(O)c4-c4cc3ccc4O)[C@H](O)c3ccc(c(Cl)c3)Oc3cc2cc(c3O[C@@H]2O[C@H](CO)[C@@H](O)[C@H](O)[C@H]2O)Oc2ccc(cc2Cl)[C@H]1O)[N+](C)(C)C [Compound 5, M43C]
> 64 µg/mL: MIC (Escherichia coli EC14) | MIC [2] | MIC (Klebsiella pneumonia X26) | MIC (Escherichia coli N10) | MIC (Klebsiella pneumonia X68) | MIC (Klebsiella pneumonia KAE) | MIC (Escherichia coli TEM)
2 µg/mL: MIC [1] | MIC [3] | MIC [11]
4 µg/mL: MIC [8] | MIC [10]
64 µg/mL: MIC [5]
8 µg/mL: MIC [4] | MIC [7]
1 µg/mL: MIC [6] | MIC [9]

CC(C)C[C@@H](N)C(=O)N[C@H]1C(=O)N[C@@H](CC(N)=O)C(=O)N[C@H]2C(=O)N[C@H]3C(=O)N[C@H](C(=O)N[C@H](C(=O)O)c4cc(O)cc(O)c4-c4cc3ccc4O)[C@H](O)c3ccc(c(Cl)c3)Oc3cc2cc(c3O)Oc2ccc(cc2Cl)[C@H]1O [Compound 9, Agluco-A51568A]
64 µg/mL: MIC [12] | MIC (Bacteroides fragilis 111) | MIC [13] | MIC [22] | MIC [28]
2 µg/mL: MIC [7]
128 µg/mL: MIC [2] | MIC [5]
0.74 mg/kg/2: ED50 (Staphylococcus aureus)
2.0 mg/kg/2: ED50 (Streptococcus pyogenes)
> 128 µg/mL: MIC (Escherichia coli EC14) | MIC (Klebsiella pneumonia X26) | MIC (Escherichia coli N10) | MIC [23] | MIC (Klebsiella pneumonia X68) | MIC (Klebsiella pneumonia KAE) | MIC (Escherichia coli TEM)
0.5 µg/mL: MIC [1] | MIC [3] | MIC [9] | MIC [11]
1.8 mg/kg/2: ED50 (Streptococcus pneumoniae)
≥ 0.5 µg/mL: MIC [15] | MIC [16]
1 µg/mL: MIC (Peptococcus prevoti 1281) | MIC [17] | MIC [4] | MIC [18] | MIC [19] | MIC [6] | MIC [20] | MIC [21] | MIC [8] | MIC [25] | MIC [26] | MIC [27] | MIC [10]
4 µg/mL: MIC [14] | MIC [24]

CN[C@H](CC(C)C)C(=O)N[C@H]1C(=O)N[C@@H](CC(N)=O)C(=O)N[C@H]2C(=O)N[C@H]3C(=O)N[C@H](C(=O)N[C@H](C(=O)O)c4cc(O)cc(O)c4-c4cc3ccc4O)[C@H](O)c3ccc(c(Cl)c3)Oc3cc2cc(c3O)Oc2ccc(cc2Cl)[C@H]1O [Compound 10, aglucovancomycin]
22.3 mg/kg/2: ED50 (Streptococcus pyogenes)
good in vitro antibacterial activity: antibacterial activity [29]
32 µg/mL: MIC [15]
8 µg/mL: MIC (Peptococcus prevoti 1281) | MIC [14] | MIC [17] | MIC [25] | MIC [26] | MIC [27]
1 µg/mL: MIC [1] | MIC [3] | MIC [8] | MIC [10]
128 µg/mL: MIC [18] | MIC [20] | MIC [22] | MIC [24]
> 128 µg/mL: MIC [12] | MIC (Bacteroides fragilis 111) | MIC [13] | MIC (Escherichia coli EC14) | MIC (Klebsiella pneumonia X26) | MIC (Escherichia coli N10) | MIC [21] | MIC [23] | MIC (Klebsiella pneumonia X68) | MIC [28] | MIC (Klebsiella pneumonia KAE)
2 µg/mL: MIC [16] | MIC [4]
64 µg/mL: MIC [2] | MIC [5] | MIC [19] | MIC [7] | MIC (Escherichia coli TEM)
0.5 µg/mL: MIC [6] | MIC [9] | MIC [11]
8.75 mg/kg/2: ED50 (Staphylococcus aureus)
16.54 mg/kg/2: ED50 (Streptococcus pneumoniae)

CC(C)C[C@H](C(=O)N[C@H]1C(=O)N[C@@H](CC(N)=O)C(=O)N[C@H]2C(=O)N[C@H]3C(=O)N[C@H](C(=O)N[C@H](C(=O)[O-])c4cc(O)cc(O)c4-c4cc3ccc4O)[C@H](O)c3ccc(c(Cl)c3)Oc3cc2cc(c3O)Oc2ccc(cc2Cl)[C@H]1O)[N+](C)(C)C [Compound 11, Agluco-M43A]
4 µg/mL: MIC [7]
1 µg/mL: MIC [9]
3.06 mg/kg/2: ED50 (Streptococcus pneumoniae) | ED50 (Staphylococcus aureus)
32 µg/mL: MIC [5]
> 128 µg/mL: MIC (Escherichia coli EC14) | MIC (Klebsiella pneumonia X26) | MIC (Escherichia coli N10) | MIC (Klebsiella pneumonia X68) | MIC (Klebsiella pneumonia KAE) | MIC (Escherichia coli TEM)
2 µg/mL: MIC [1] | MIC [3] | MIC [4] | MIC [6] | MIC [8] | MIC [10] | MIC [11]
128 µg/mL: MIC [2]
3.63 mg/kg/2: ED50 (Streptococcus pyogenes)

CC(C)C[C@@H](N)C(=O)N[C@H]1C(=O)N[C@@H](CC(N)=O)C(=O)N[C@H]2C(=O)N[C@H]3C(=O)N[C@H](C(=O)N[C@H](C(=O)O)c4cc(O)cc(O)c4-c4cc3ccc4O)[C@H](O)c3ccc(c(Cl)c3)Oc3cc2cc(c3O[C@@H]2O[C@H](CO)[C@@H](O)[C@H](O)[C@H]2O)Oc2ccc(cc2Cl)[C@H]1O [Compound 12, Desvancosamine-A51568A]
128 µg/mL: MIC (Escherichia coli TEM)
> 128 µg/mL: MIC (Escherichia coli EC14) | MIC [2] | MIC [5] | MIC (Klebsiella pneumonia X26) | MIC (Escherichia coli N10) | MIC (Klebsiella pneumonia X68) | MIC (Klebsiella pneumonia KAE)
2 µg/mL: MIC [1] | MIC [3] | MIC [6] | MIC [11]
1 µg/mL: MIC [9]
4 µg/mL: MIC [4] | MIC [8] | MIC [10]
8 µg/mL: MIC [7]

CN[C@H](CC(C)C)C(=O)N[C@H]1C(=O)N[C@@H](CC(N)=O)C(=O)N[C@H]2C(=O)N[C@H]3C(=O)N[C@H](C(=O)N[C@H](C(=O)O)c4cc(O)cc(O)c4-c4cc3ccc4O)[C@H](O)c3ccc(c(Cl)c3)Oc3cc2cc(c3O[C@@H]2O[C@H](CO)[C@@H](O)[C@H](O)[C@H]2O)Oc2ccc(cc2Cl)[C@H]1O [Compound 13, Desvancosamine-Vancomycin]
128 µg/mL: MIC [5]
> 128 µg/mL: MIC (Escherichia coli EC14) | MIC [2] | MIC (Klebsiella pneumonia X26) | MIC (Escherichia coli N10) | MIC (Klebsiella pneumonia X68) | MIC (Klebsiella pneumonia KAE) | MIC (Escherichia coli TEM)
8 µg/mL: MIC [1] | MIC [3] | MIC [8] | MIC [10] | MIC [11]
16 µg/mL: MIC [4]
4 µg/mL: MIC [6] | MIC [9]
32 µg/mL: MIC [7]
